{
  "source": "paper PMC9482650",
  "about": "“Quantitative fragmentomics allow affinity mapping of interactomes” (Nature Communications, 2022)",
  "key": {"HeLa cell extract preys": {"tested_on": "HeLa cell extract preys", "experiment": "PBM-AP-MS, PBM peptide baits", "assay_type": "binding, human", "method": "(§1) HEK293T and HeLa cells were authenticated and found 100% identity to ATCC cat. CRL-3216 and ATCC cat. CCL-2, respectively. Jurkat and HaCat cell lines were not authenticated (original source: ECACC and Deutsches Krebsforschungszentrum DKFZ, respectively). HeLa cells were grown in DMEM (1 g/L glucose, Gibco) medium completed with 5% FCS and 40 μg/mL gentamicin, diluted every 3rd/4th day 1/10. HaCat cells were grown in DMEM (1 g/L glucose, Gibco) medium completed with 10% FCS and 40 μg/mL gentamicin, diluted every 3rd/4th day 1/4. Jurkat cells were grown in RPMI (Gibco) medium completed with 10% FCS and 40 μg/mL gentamicin, diluted every 3rd/4th day 1/12. All cells were kept at 37 °C and 5% CO2. For proteomics analyses cells were seeded on T-175 flasks. After they reached confluency, adherent cells were washed with PBS once and collected by scraping with ice-cold lysis buffer (Hepes-KOH pH 7.5 50 mM, NaCl 150 mM, Triton X-100 1%, complete EDTA-free protease inhibitor cocktail 1×, EDTA 2 mM, TCEP 5 mM, glycerol 10%). Jurkat cells were collected by 1000 g × centrifugation, washed once with PBS, then collected by 1000 g × 5 min centrifugation again and lysed in ice-cold lysis buffer. Lysates were sonicated 4 × 20 s with 1 s long pulses on ice, then incubated rotating at 4 °C for 30 min. Lysates were centrifuged at 12,000 rpm 4 °C for 20 min and supernatant was kept for further analysis. Concentration determination was carried out by standard Bradford method (Bio-Rad Protein Assay Dye Reagent #5000006) using BSA (MP BIomedicals #160069) as control on a Bio-Rad SmartSpec 3000 spectrophotometer instrument.\n(§2) For PBM-AP-MS experiments, 30 μl streptavidin resin was mixed with biotin or peptide at 50–60 μM concentration in 6–6.5 resin volume for 60 min to achieve resin saturation. For PDZ-AP-MS experiments, 30 μl streptavidin resin was mixed with biotinylated MBP or MBP-PDZ at 40-50 μM concentration in >1000× resin volume for 60 min to achieve resin saturation. After saturation, resins were washed a single time (ten resin volume, holdup buffer), and were depleted with biotin (1 mM biotin, 5–10 resin volume, 10 min). Finally, resins were washed two times. 0.5 ml 2 mg/ml cell lysate was added to the dry resin (1 mg total input) and were incubated at 4 °C for 2 h. Then, the beads were washed three times with 10 resin volume buffer containing: 50 mM TRIS pH 8.5, 150 mM NaCl, 1% TritonX-100, 10× complete EDTA-free protease inhibitor cocktail, 2 mM EDTA, 1 mM TCEP. Then, the beads were washed two times with ten resin volume buffer containing: 50 mM TRIS pH 8.5, 150 mM NaCl, 1 mM TCEP. Finally, captured protein was eluted from the resin in two steps and the eluted fractions were pooled. For each elution the beads were incubated for 30 min with three resin volume buffer containing: 20 mM TRIS pH8.5, 100 mM NaCl, 500 μM TCEP, 8 M Urea. Between each step, the beads were separated by mild centrifugation and the supernatant was removed by gentle pipetting.\n(§3) The samples were precipitated with TCA 20% overnight at 4 °C and centrifuged at 14,000 rpm for 10 min at 4 °C. The protein pellets were washed twice with 1 mL cold acetone and air dried. The protein extracts were solubilized in urea 8 M, reduced with 5 mM TCEP for 30 min, and alkylated with 10 mM iodoacetamide for 30 min in the dark. Double digestion was performed at 37 °C with 500 ng endoproteinase Lys-C for 4 h, followed by fourfold dilution and an overnight digestion with 500 ng trypsin. Peptide mixtures were then desalted on C18 spin-column and dried on Speed-Vacuum.\n(§4) Samples were analyzed using an Ultimate 3000 nano-RSLC (Thermo Scientific, San Jose California) coupled in line with a LTQ-Orbitrap ELITE mass spectrometer via a nano-electrospray ionization source (Thermo Scientific, San Jose California). […]"}, "HaCat cell extract preys": {"tested_on": "HaCat cell extract preys", "experiment": "PBM-AP-MS, PBM peptide baits", "assay_type": "binding, human", "method": "as §1, §2, §3, §4"}},
  "data": [
    {"substance": "HPV18E6", "values": [
      {"measurement": "Enrichment values compared to biotin controls", "setting": "HeLa cell extract preys; prey AHNAK, PBM peptide bait", "result": 0.9},
      {"measurement": "Enrichment values compared to biotin controls", "setting": "HeLa cell extract preys; prey ARHGAP21, PBM peptide bait", "result": 1.1},
      {"measurement": "Enrichment values compared to biotin controls", "setting": "HeLa cell extract preys; prey ARHGEF12, PBM peptide bait", "result": 1.0},
      {"measurement": "Enrichment values compared to biotin controls", "setting": "HeLa cell extract preys; prey CASK, PBM peptide bait", "result": 5.3},
      {"measurement": "Enrichment values compared to biotin controls", "setting": "HeLa cell extract preys; prey DLG1, PBM peptide bait", "result": 6.5},
      {"measurement": "Enrichment values compared to biotin controls", "setting": "HeLa cell extract preys; prey DLG3, PBM peptide bait", "result": 5.8},
      {"measurement": "Enrichment values compared to biotin controls", "setting": "HeLa cell extract preys; prey DLG5, PBM peptide bait", "result": 1.4},
      {"measurement": "Enrichment values compared to biotin controls", "setting": "HeLa cell extract preys; prey DVL2, PBM peptide bait", "result": 1.0},
      {"measurement": "Enrichment values compared to biotin controls", "setting": "HeLa cell extract preys; prey GOPC, PBM peptide bait", "result": 2.8},
      {"measurement": "Enrichment values compared to biotin controls", "setting": "HeLa cell extract preys; prey HTRA1, PBM peptide bait", "result": 2.4},
      {"measurement": "Enrichment values compared to biotin controls", "setting": "HeLa cell extract preys; prey InaDl, PBM peptide bait", "result": 3.6},
      {"measurement": "Enrichment values compared to biotin controls", "setting": "HeLa cell extract preys; prey LAP2, PBM peptide bait", "result": 1.8},
      {"measurement": "Enrichment values compared to biotin controls", "setting": "HeLa cell extract preys; prey LIN7C, PBM peptide bait", "result": 285.6},
      {"measurement": "Enrichment values compared to biotin controls", "setting": "HeLa cell extract preys; prey LMO7, PBM peptide bait", "result": 1.9},
      {"measurement": "Enrichment values compared to biotin controls", "setting": "HeLa cell extract preys; prey MPDZ, PBM peptide bait", "result": 3.2},
      {"measurement": "Enrichment values compared to biotin controls", "setting": "HeLa cell extract preys; prey MPP5, PBM peptide bait", "result": 60.3},
      {"measurement": "Enrichment values compared to biotin controls", "setting": "HeLa cell extract preys; prey MPP6, PBM peptide bait", "result": 3.7},
      {"measurement": "Enrichment values compared to biotin controls", "setting": "HeLa cell extract preys; prey MPP7, PBM peptide bait", "result": 14.5},
      {"measurement": "Enrichment values compared to biotin controls", "setting": "HeLa cell extract preys; prey NHERF2, PBM peptide bait", "result": 0.843},
      {"measurement": "Enrichment values compared to biotin controls", "setting": "HeLa cell extract preys; prey NHERF3, PBM peptide bait", "result": 0.8},
      {"measurement": "Enrichment values compared to biotin controls", "setting": "HeLa cell extract preys; prey PDLIM5, PBM peptide bait", "result": 0.9},
      {"measurement": "Enrichment values compared to biotin controls", "setting": "HeLa cell extract preys; prey PDLIM7, PBM peptide bait", "result": 0.8},
      {"measurement": "Enrichment values compared to biotin controls", "setting": "HeLa cell extract preys; prey PSMD9, PBM peptide bait", "result": 0.8},
      {"measurement": "Enrichment values compared to biotin controls", "setting": "HeLa cell extract preys; prey SCRIB, PBM peptide bait", "result": 215.8},
      {"measurement": "Enrichment values compared to biotin controls", "setting": "HeLa cell extract preys; prey SIPA1L1, PBM peptide bait", "result": 0.9},
      {"measurement": "Enrichment values compared to biotin controls", "setting": "HeLa cell extract preys; prey SNTA1, PBM peptide bait", "result": 1.2},
      {"measurement": "Enrichment values compared to biotin controls", "setting": "HeLa cell extract preys; prey SNTB1, PBM peptide bait", "result": 18.1},
      {"measurement": "Enrichment values compared to biotin controls", "setting": "HeLa cell extract preys; prey SNTB2, PBM peptide bait", "result": 76.9},
      {"measurement": "Enrichment values compared to biotin controls", "setting": "HeLa cell extract preys; prey SNX27, PBM peptide bait", "result": 12.8},
      {"measurement": "Enrichment values compared to biotin controls", "setting": "HeLa cell extract preys; prey SYNJ2BP, PBM peptide bait", "result": 49.1},
      {"measurement": "Enrichment values compared to biotin controls", "setting": "HeLa cell extract preys; prey TJP1, PBM peptide bait", "result": 1.7},
      {"measurement": "Enrichment values compared to biotin controls", "setting": "HeLa cell extract preys; prey TX1B3, PBM peptide bait", "result": 30.0},
      {"measurement": "Enrichment values compared to biotin controls", "setting": "HaCat cell extract preys; prey AHNAK2, PBM peptide bait", "result": 0.8},
      {"measurement": "Enrichment values compared to biotin controls", "setting": "HaCat cell extract preys; prey AHNAK, PBM peptide bait", "result": 1.4},
      {"measurement": "Enrichment values compared to biotin controls", "setting": "HaCat cell extract preys; prey DLG1, PBM peptide bait", "result": 2.3},
      {"measurement": "Enrichment values compared to biotin controls", "setting": "HaCat cell extract preys; prey GORASP2, PBM peptide bait", "result": 9.0},
      {"measurement": "Enrichment values compared to biotin controls", "setting": "HaCat cell extract preys; prey InaDl, PBM peptide bait", "result": 8.0},
      {"measurement": "Enrichment values compared to biotin controls", "setting": "HaCat cell extract preys; prey LAP2, PBM peptide bait", "result": 0.9},
      {"measurement": "Enrichment values compared to biotin controls", "setting": "HaCat cell extract preys; prey LIN7C, PBM peptide bait", "result": 215.4},
      {"measurement": "Enrichment values compared to biotin controls", "setting": "HaCat cell extract preys; prey MAGI3, PBM peptide bait", "result": 7.4},
      {"measurement": "Enrichment values compared to biotin controls", "setting": "HaCat cell extract preys; prey MPP5, PBM peptide bait", "result": 11.3},
      {"measurement": "Enrichment values compared to biotin controls", "setting": "HaCat cell extract preys; prey MPP6, PBM peptide bait", "result": 5.0},
      {"measurement": "Enrichment values compared to biotin controls", "setting": "HaCat cell extract preys; prey MPP7, PBM peptide bait", "result": 48.3},
      {"measurement": "Enrichment values compared to biotin controls", "setting": "HaCat cell extract preys; prey NHERF2, PBM peptide bait", "result": 1.8},
      {"measurement": "Enrichment values compared to biotin controls", "setting": "HaCat cell extract preys; prey NHERF, PBM peptide bait", "result": 2.5},
      {"measurement": "Enrichment values compared to biotin controls", "setting": "HaCat cell extract preys; prey PDLIM1, PBM peptide bait", "result": 3.2},
      {"measurement": "Enrichment values compared to biotin controls", "setting": "HaCat cell extract preys; prey PDLIM2, PBM peptide bait", "result": 0.8},
      {"measurement": "Enrichment values compared to biotin controls", "setting": "HaCat cell extract preys; prey PDLIM4, PBM peptide bait", "result": 1.0},
      {"measurement": "Enrichment values compared to biotin controls", "setting": "HaCat cell extract preys; prey PDLIM5, PBM peptide bait", "result": 0.7},
      {"measurement": "Enrichment values compared to biotin controls", "setting": "HaCat cell extract preys; prey PDLIM7, PBM peptide bait", "result": 0.5},
      {"measurement": "Enrichment values compared to biotin controls", "setting": "HaCat cell extract preys; prey PTPN3, PBM peptide bait", "result": 1.7},
      {"measurement": "Enrichment values compared to biotin controls", "setting": "HaCat cell extract preys; prey SCRIB, PBM peptide bait", "result": 0.6},
      {"measurement": "Enrichment values compared to biotin controls", "setting": "HaCat cell extract preys; prey SNTB2, PBM peptide bait", "result": 15.4},
      {"measurement": "Enrichment values compared to biotin controls", "setting": "HaCat cell extract preys; prey SNX27, PBM peptide bait", "result": 0.641},
      {"measurement": "Enrichment values compared to biotin controls", "setting": "HaCat cell extract preys; prey SYNJ2BP, PBM peptide bait", "result": 58.4},
      {"measurement": "Enrichment values compared to biotin controls", "setting": "HaCat cell extract preys; prey TJP1, PBM peptide bait", "result": 8.8},
      {"measurement": "Enrichment values compared to biotin controls", "setting": "HaCat cell extract preys; prey TJP2, PBM peptide bait", "result": 1.8},
      {"measurement": "Enrichment values compared to biotin controls", "setting": "HaCat cell extract preys; prey TX1B3, PBM peptide bait", "result": 1.6}
    ]}
  ]
}
